Laboratory results taken from patent US4939173A, “Aryloxy alkanols as anti-retrovirus agents” (Merrell Dow Pharmaceuticals Inc., priority 1988, dated 1990).
In brackets after ≈: the same amount, converted by molar mass.

How the values were obtained:
[1] = system: Moloney murine leukemia virus (MoLV); assay: in vitro XC plaque assay: inhibition of murine leukemia virus plaque growth (mouse SC-1 cells, rat XC cells); assay type: cell-based; details: SC1, compounds added 2 hours prior to virus, read-out: IC50 (concentration giving a 50% inhibition of virus plaque growth)
Description: This assay was performed according to the method of Rowe et al. (Virology, 1970, 42, 1136-39) as previously described by L. Hsu, et al. (J. Virological Methods, 1980, 1, 167-77) and T. L. Bowlin and M. R. Proffitt (J. Interferon Res., 983, 3(1), 19-31). Mouse SC-1 cells (fibroblast) (10^5) were seeded into each well of 6-well cluster plates (Costar #3506) in 4 ml Minimum Essential Medium (MEM) with 10% Fetal Calf Serum (FCS). Following an 18 hour incubation period (37° C.), Moloney murine leukemia virus (MoLV) was applied at a predetermined titer to give optimal (i.e. countable) numbers of virus plaques. Compounds were added 2 hours prior to addition of the virus. Three days later the culture medium was removed, the SC-1 cell monolayers were exposed to UV irradiation (1800 ergs), and rat XC cells (10^6) were seeded into each well in 4 ml MEM. Following an additional 3 day incubation (37° C.), these cells were fixed with ethyl alcohol (95%) and stained with 0.3% crystal violet. Plaques were then counted under low magnification. The antiviral activities of various compounds of this invention are tabulated in Table I in terms of the IC50, i,e, the concentration giving a 50% inhibition of virus plaque growth.

HIVlGB8 strain of HIV-1 = assay: anti-HIV activity in JM T-cells pretreated with HIV-1 (syncytial cell count and p24 antigen); assay type: cell-based; details: after 4 days; for Syncytial count: untreated 29
Description: To further confirm the antiretroviral activity of these compounds, 6-(4-phenylphenoxy)hexan-1-ol was evaluated for activity against HIV. Following overnight pretreatment of T-cells (JM cells) with the HIVlGB8 strain of HIV-1, 6-(4-phenylphenoxy)hexan-1-ol was added to the cell cultures at concentrations of 15 and 7.5 μg/ml. After 4 days the number of synctial cells in the cell culture and the amount of p24 antigen, also a measure of viral replication, were determined.

[2] = system: HIV and other retroviruses; details: previously shown; cited from earlier work

Row | Compound | IC50 [1] | further results
1 | OCCCCOc1ccc(OCc2ccccc2)cc1 [4-(4-Benzyloxyphenoxy)butan-1-ol, 4-(4-Benzyloxyphenoxy)-butan-1-ol] | 1 to 10 µg/mL (≈ 3.67 to 36.7 µM) | –
2 | Cc1cc(C)c(OCCCCCCO)c(C)c1 [6-(2,4,6-Trimethylphenoxy)hexan-1-ol, 6-(2,4,6-trimethylphenoxy)hexan-1-ol] | 5 µg/mL (≈ 21.2 µM) | –
3 | OCCCCCCOc1ccc2ccccc2c1 [6-(2-Naphthylenyloxy)hexan-1-ol, 6-(2-naphthylenyloxy)hexan-1-ol] | 5 to 10 µg/mL (≈ 20.5 to 40.9 µM) | –
4 | OCCCCCCOc1ccc(OCc2ccccc2)cc1 [6-(4-Benzyloxyphenoxy)hexan-1-ol] | 1 to 10 µg/mL (≈ 3.33 to 33.3 µM) | –
5 | OCCCCCCOc1ccc(Cc2ccccc2)cc1 [6-(4-Benzylphenoxy)hexan-1-ol] | 1 to 10 µg/mL (≈ 3.52 to 35.2 µM) | –
6 | O=C(O)CCC(=O)OCCCCCCOc1ccc(-c2ccccc2)cc1 [6-(4-PhenYlphenoxV)-1-hexYl succinate (monoester)] | 1 to 10 µg/mL | –
7 | OCCCCCCOc1ccc(-c2ccccc2)cc1 [6-(4-Phenylphenoxy)hexan-1-ol] | 2.5 to 5 µg/mL (≈ 9.25 to 18.5 µM) | Syncytial count (HIVlGB8 strain of HIV-1; 7.5 μg/ml): 8; Syncytial count (HIVlGB8 strain of HIV-1; 15 μg/ml): 0; P24 antigen (HIVlGB8 strain of HIV-1; 15 μg/ml, untreated 801): 62 pg × 10^3 /ml; inhibition at 7.5 µg/mL (HIVlGB8 strain of HIV-1; Human immunodeficiency virus 1, T-cell, 96 h, 7.5 μg/ml, syncytial count vs untreated): 72%; inhibition at 15 µg/mL (HIVlGB8 strain of HIV-1; Human immunodeficiency virus 1, T-cell, 96 h, 15 μg/ml, syncytial count vs untreated): 100%
8 | OCCCCCCOc1ccccc1 [6-Phenoxyhexan-1-ol, 6-phenoxyhexan-1-ol] | 1 µg/mL (≈ 5.15 µM) | –
9 | O[C@H]1[C@H](O)[C@@H](O)CN2CC[C@H](O)[C@H]12 [castanospermine] | – | activity against HIV and other retroviruses [2]: activity against HIV and other retroviruses
10 | heparin | – | activity against HIV and other retroviruses [2]: activity against HIV and other retroviruses
